Assay results: ChEMBL document CHEMBL4715821, “Discovery of 4-ethoxy-7H-pyrrolo[2,3-d]pyrimidin-2-amines as potent, selective and orally bioavailable LRRK2 inhibitors” (Bioorg Med Chem Lett, 2018)

What was measured:
[1] = biological target: Testis-specific serine/threonine-protein kinase 6 (Homo sapiens) (UniProt Q9BXA6); test: Inhibition of SSTK (unknown origin) assessed as residual activity at 1 uM by Kinomescan method relative to control
[2] = biological target: Dual specificity protein kinase CLK1 (Homo sapiens) (UniProt P49759); test: Inhibition of wild-type human full length CLK1 (M1 to I484 residues) expressed in bacterial expression system assessed as residual activity at 1 uM by Kinomescan method relative to control
[3] = biological target: Serine/threonine-protein kinase Nek2 (Homo sapiens) (UniProt P51955); test: Inhibition of wild-type human partial length NEK2 (M1 to K309 residues) expressed in bacterial expression system assessed as residual activity at 1 uM by Kinomescan method relative to control
[4] = Unbound fraction in mouse brain; type: ADME, tissue-based
[5] = biological target: Serine/threonine-protein kinase 38-like (Homo sapiens) (UniProt Q9Y2H1); test: Inhibition of wild-type human partial length NDR2 (N34 to E447 residues) expressed in bacterial expression system assessed as residual activity at 1 uM by Kinomescan method relative to control
[6] = biological target: Tyrosine-protein kinase ABL2 (Homo sapiens) (UniProt P42684); test: Inhibition of wild-type human ABL2 (A248 to G542 residues) expressed in bacterial expression system assessed as residual activity at 1 uM by Kinomescan method relative to control
[7] = biological target: Myosin-IIIb (Homo sapiens) (UniProt Q8WXR4); test: Inhibition of wild-type human partial length MYO3B (M1 to D357 residues) expressed in bacterial expression system assessed as residual activity at 1 uM by Kinomescan method relative to control
[8] = biological target: Serine/threonine-protein kinase pim-1 (Homo sapiens) (UniProt P11309); test: Inhibition of wild-type human partial length PIM1 (A15 to K313 residues) expressed in bacterial expression system assessed as residual activity at 1 uM by Kinomescan method relative to control
[9] = biological target: Insulin receptor (Homo sapiens) (UniProt P06213); test: Inhibition of IR (unknown origin)assessed as residual activity at 1 uM by Kinomescan method relative to control
[10] = biological target: Serine/threonine-protein kinase 17A (Homo sapiens) (UniProt Q9UEE5); test: Inhibition of wild-type human partial length DRAK1 (R32 to E363 residues) expressed in bacterial expression system assessed as residual activity at 1 uM by Kinomescan method
[11] = biological target: LIM domain kinase 2 (Homo sapiens) (UniProt P53671); test: Inhibition of wild-type human full length LIMK2 (M1 to P638 residues) expressed in bacterial expression system assessed as residual activity at 1 uM by Kinomescan method relative to control
[12] = biological target: MAP kinase-activated protein kinase 3 (Homo sapiens) (UniProt Q16644); test: Inhibition of human MAPKAPK3 assessed as residual activity at 1 uM by Kinomescan method relative to control
[13] = biological target: Phosphorylase b kinase gamma catalytic chain, liver/testis isoform (Homo sapiens) (UniProt P15735); test: Inhibition of wild-type human partial length PHKG2 (M1 to W300 residues) expressed in bacterial expression system assessed as residual activity at 1 uM by Kinomescan method relative to control
[14] = biological target: Calcium/calmodulin-dependent protein kinase type IV (Homo sapiens) (UniProt Q16566); test: Inhibition of wild-type human partial length CAMK4 (A22 to A322 residues) expressed in bacterial expression system assessed as residual activity at 1 uM by Kinomescan method relative to control
[15] = biological target: Serine/threonine-protein kinase 25 (Homo sapiens) (UniProt O00506); test: Inhibition of wild-type human partial length YSK1 (V14 to H295 residues) expressed in bacterial expression system assessed as residual activity at 1 uM by Kinomescan method relative to control
[16] = biological target: Mitogen-activated protein kinase 11 (Homo sapiens) (UniProt Q15759); test: Inhibition of wild-type human full length p38-beta (M1 to Q364 residues) expressed in bacterial expression system assessed as residual activity at 1 uM by Kinomescan method relative to control
[17] = biological target: STE20/SPS1-related proline-alanine-rich protein kinase (Homo sapiens) (UniProt Q9UEW8); test: Inhibition of wild-type human partial length STK39 (P43 to I357 residues) expressed in mammalian expression system assessed as residual activity at 1 uM by Kinomescan method relative to control
[18] = biological target: SRSF protein kinase 1 (Homo sapiens) (UniProt Q96SB4); test: Inhibition of wild-type human full length SRPK1 (M1 to S655 residues) expressed in bacterial expression system assessed as residual activity at 1 uM by Kinomescan method relative to control
[19] = biological target: Proto-oncogene tyrosine-protein kinase Src (Homo sapiens) (UniProt P12931); test: Inhibition of wild-type human partial length c-Src (M1 to L450 residues) expressed in bacterial expression system assessed as residual activity at 1 uM by Kinomescan method relative to control
[20] = biological target: Serine/threonine-protein kinase Nek5 (Homo sapiens) (UniProt Q6P3R8); test: Inhibition of wild-type human partial length NEK5 (M1 to M279 residues) expressed in bacterial expression system assessed as residual activity at 1 uM by Kinomescan method relative to control
[21] = biological target: G protein-coupled receptor kinase 5 (Homo sapiens) (UniProt P34947); test: Inhibition of GRK5 (unknown origin) assessed as residual activity at 1 uM by Kinomescan method relative to control
[22] = Unbound fraction in Han-Wistar rat brain at 10 mg/kg, po; type: ADME, organism-based
[23] = biological target: CDK9/Cyclin K (Homo sapiens) (UniProt P50750+O75909); test: Inhibition of wild-type human full length CDK9 (M1 to F372 residues)/cyclin K expressed in bacterial expression system assessed as residual activity at 1 uM by Kinomescan method relative to control
[24] = biological target: Mitogen-activated protein kinase 13 (Homo sapiens) (UniProt O15264); test: Inhibition of wild-type human full length p38-delta (M1 to L365 residues) expressed in bacterial expression system assessed as residual activity at 1 uM by Kinomescan method relative to control
[25] = biological target: Tyrosine-protein kinase Srms (Homo sapiens) (UniProt Q9H3Y6); test: Inhibition of wild-type human partial length SRMS (L208 to P488 residues) expressed in mammalian expression system assessed as residual activity at 1 uM by Kinomescan method relative to control
[26] = biological target: Dual specificity mitogen-activated protein kinase kinase 4 (Homo sapiens) (UniProt P45985); test: Inhibition of MKK4 (unknown origin) assessed as residual activity at 1 uM by Kinomescan method relative to control
[27] = biological target: Inhibitor of nuclear factor kappa-B kinase subunit epsilon (Homo sapiens) (UniProt Q14164); test: Inhibition of wild-type human full length IKK-epsilon (M1 to V716 residues) expressed in mammalian expression system assessed as residual activity at 1 uM by Kinomescan method relative to control
[28] = biological target: Mitogen-activated protein kinase 12 (Homo sapiens) (UniProt P53778); test: Inhibition of wild-type human full length p38-gamma (M1 to L367 residues) expressed in mammalian expression system assessed as residual activity at 1 uM by Kinomescan method relative to control

## CCOc1nc(Nc2ccc(C(=O)N3CCOCC3)cc2OC)nc2[nH]ccc12
[1]
  Activity: 83.3%
[2]
  Activity: 37.4%
[3]
  Activity: 96.1%
[4]
  fraction unbound: 0.01
[5]
  Activity: 96.8%
[6]
  Activity: 89.4%
[7]
  Activity: 48.9%
[8]
  Activity: 99.7%
[9]
  Activity: 14.9%
[10]
  Activity: 97.9%
[11]
  Activity: 106%
[12]
  Activity: 101%
[13]
  Activity: 90.6%
[14]
  Activity: 90.6%
[15]
  Activity: 95.4%
[16]
  Activity: 101%
[17]
  Activity: 97.5%
[18]
  Activity: 87.4%
[19]
  Activity: 99%
[20]
  Activity: 94.8%
[21]
  Activity: 92.6%
[22]
  fraction unbound: 0.01
[23]
  Activity: 103%
[24]
  Activity: 109%
[25]
  Activity: 108%
[26]
  Activity: 107%
[27]
  Activity: 88.8%
[28]
  Activity: 103%
